# Test results published in US20040002609A1, “Synthesis of 3,3,4,4-tetrafluoropyrrolidine and novel dipeptidyl peptidase-IV inhibitor compounds” (Pfizer Inc., priority 2002, published 2004).
row,melting point [°C],SMILES
1,278,"N[C@H](C(=O)N1CC(F)(F)C(F)(F)C1)C1CCCCC1 [Example 3, (S)-2-Amino-2-cyclohexyl-1-(3,3,4,4-tetrafluoro-pyrrolidin-1-yl)-ethanone]"
2,234 to 238,"CC(C)[C@H](N)C(=O)N1CC(F)(F)C(F)(F)C1 [Example 5, (S)-2-Amino-3-methyl-1-(3,3,4,4-tetrafluoro-pyrrolidin-1-yl)-butan-1-one]"
